Laboratory results as given in patent US20080118489A1, “Charge-Modified Lysozyme Antimicrobial Compositions, Surfactants, and Methods for Infections and Cystic Fibrosis” (priority 2005, published 2008).
Converted amounts (≈) assume the structure as drawn.

What was measured:
[1] = system: Pseudomonas aeruginosa (PA01); assay: Bacterial killing assay, tobramycin with or without mucin; assay type: cell-based
Method: Tobramycin sequestration was also measured via bacteriological killing assays. In these bacterial killing assay experiments Pseudomonas aeruginosa (PA01), the primary bacteria responsible for infection in CF patients, was incubated in the presence of mucin, DNA, tobramycin, lipid or various mixtures of these four materials. Killing assays were performed in the following manner: PA01 was grown in cation adjusted Mueller-Hinton media to a concentration greater than 5×10^8, sedimented by centrifugation and resuspended in a buffered solution of 5 mM Tris 5 mM PIPES and 100 mM NaCl at pH 7.2. A quantity of […]. of PAO1 were incubated for 3.5 hours in the buffered salt solution with varied concentrations of tobramycin, DNA, mucin, and lipids. The mucin concentrations were either 0 mg/ml (control) or 10 mg/ml which is near the physiologically measured concentrations of mucin. Lipids added to the bacterial solution were added in varying concentrations in order to determine the amount needed to release tobramycin from its strong interaction with mucin and/or DNA. The bacterial solution was serially diluted and plated on MH-agar plates. Plates were incubated overnight and the number of bacterial colonies counted.

[2] = system: Calf thymus (CT) DNA; assay: SAXS of DNA + tobramycin (+ cationic lipid) suspensions; assay type: binding
Excerpt: For our studies of the sequestration of aminoglycoside antibiotics by model CF sputum and subsequent release by the administration of surfactants we used the following materials. The aminoglycoside antibiotic used in our experiments was Tobramycin (Sigma Aldrich), commonly used to treat infections of Pseudomonas aeruginosa in CF patients. […] For the DNA+tobramycin experiments we used Calf thymus (CT) DNA (USB Corp. Cleveland Ohio), purified it using standard techniques, and resuspended it in an aqueous solution of 100 mM NaCl 5 mM Tris and 5 mM PIPES adjusted to pH 7. DNA has a charge of approximately −2/base pair.
Surfactant materials used in the present experiments were a mixture of two lipids DOTAP (1,2-Dioleoyl-3-Trimethylammonium-Propane) and DOPE (1,2-Dioleoyl-sn-Glycero-3-Phosphoethanolamine) (Avanti Polar lipids, Alabaster Al.) in mass ratios of about 70:30 and about 25:75. DOTAP is a cationic lipid (charge of +1) with no curvature, and DOPE is a neutral lipid with negative curvature. Briefly, the lipids were first dissolved in chloroform, then dried under nitrogen and redissolved in an aqueous solution. The aqueous salt solution was then sonicated to form unilamellar lipid vescicles, and filtered through 0.2 micron pores.
Aminoglycoside antibiotic sequestration by negatively charged bio-polymers in respiratory mucous of CF patients was measured via two techniques. The first method was to use x-ray diffraction techniques to discern the structure of suspensions of mixtures of biopolymers and antibiotic. Specific x-ray diffraction studies were done to determine the structure of mixtures of the DNA with tobramycin and the lipid mixture. The isoelectric DNA-lipid-monovalent salt solutions were sealed in 1.5 mm quartz capillaries (Hilgenberg GmbH; Malsfeld, Germany) and mixed thoroughly by centrifugation. The approximate sample volume in the capillary was 30 μl-60 μl. SAXS experiments were performed as described previously. Tobramycin has charge of approximately +5 at physiological pH, whereas DNA is negatively charged, thus when the ratio of net DNA charge is approximately equal to the net tobramycin charge (T/D˜1), the tobramycin condenses the DNA. The resulting structure is a bundle of DNA. The structures observed via x-ray diffraction indicate whether or not the tobramycin is sequestered with the DNA or free in suspension. The present invention uses positively charged lipids to replace the tobramycin in these bundles, thereby increasing the efficacy of the antibiotic. Consequently, our experiments used a fixed DNA concentration of 3 mg/ml (x-ray experiments) and a varied concentration of tobramycin and/or lipid. Concentrations are varied such that the ratio of positive to negative charges is known. Similar x-ray diffraction studies can be conducted wherein mucin, instead of DNA, is the sequestration agent to examine mucin+tobramycin+lipid complexes and kinetics.

[3] = biological target: T1, F-actin (Oryctolagus cuniculus, UniProt P68135); assay: SAXS of F-actin / hen egg white lysozyme bundles; assay type: binding, rabbit
T1 construct: prepared from a lyophilized powder of rabbit skeletal muscle; purchased Cytoskeleton, Inc. (Denver, Col.); host or cells: rabbit skeletal muscle (tissue-derived)
Method: Monomeric G-actin (MW 42,000) was prepared from a lyophilized powder of rabbit skeletal muscle purchased from Cytoskeleton, Inc. (Denver, Col.). The non-polymerizing G-actin solution contained a 5 mM TRIS buffer at pH 8.0, with 0.2 mM CaCl2, 0.5 mM ATP, and 0.2 mM DTT and 0.01% NaN3. G-actin (2 mg/ml) was polymerized into F-actin (linear charge density λA˜−1 e /2.5 Å at pH 7) upon the addition of salt (100 mM KCl). Human plasma gelsolin (Cytoskeleton, Inc., Denver, Col.) was used to control the average F-actin length between 0.1 μm to 10 μm. The filaments were treated with phalloidin (Sigma Aldrich, St. Louis, Mo., MW 789.2) to prevent actin depolymerization and resuspended to a final concentration of ˜26.67 mg/ml using Millipore (Billerica, Mass.) H2O (18.2MΩ). Hen Egg White Lysozyme (MW 14,300, Sigma Aldrich, St. Louis, Mo.) was dissolved in Millipore H2O (18.2MΩ) to a final concentration ˜25 mg/ml. Lysozyme carries a pH dependent charge of +9 or +10 and has dimensions of approximately ˜26Å×26Å×45 Å.
The F-actin—lysozyme isoelectric point is found at a concentration ratio of ˜2.5:1 F-actin:lysozyme. X-ray samples were prepared at various F-actin:lysozyme concentration ratios on either side of the isoelectric point, including 2:1, 2.5:1, 3:1, and 5:1. […]

Question: What does the source list for `NC[C@H]1O[C@H](O[C@H]2[C@H](O)[C@@H](O[C@H]3O[C@H](CO)[C@@H](O)[C@H](N)[C@H]3O)[C@H](N)C[C@@H]2N)[C@H](N)C[C@@H]1O` [tobramycin]?
Answer: tobramycin concentration until which mucin inhibits killing ability ([1]; 10 mg/ml mucin): 20 × the minimal inhibitory concentration (MIC); MIC ([1]; Pseudomonas aeruginosa, 3.5 hours, 5 mM Tris 5 mM PIPES 100 mM NaCl pH 7.2, read-out: minimal inhibitory concentration (MIC)): ~5 µg/mL (≈ 10.7 µM); biological accessibility, fraction of the available dose ([1]; sequestration by anionic polyelectrolytes of CF sputum): 1/20; ratio of tobramycin charge to DNA charge (T/D) at which bundled DNA peak appears ([2]; DNA 3 mg/ml, pH 7): ~1; tobramycin concentration at which bundled DNA peak appears ([2]; DNA 3 mg/ml, pH 7): 1.9 mM; preference of interaction, DNA versus F-actin ([2]; F-actin 5 mg/ml + DNA 1 mg/ml + tobramycin): preferentially interacts with DNA over F-actin; sequestration of tobramycin by DNA at raised lipid concentration ([2]; T/D approaching 1, L/D=2): again unsequestered by the DNA; sequestration of tobramycin by DNA without lipid ([2]; T/D=0.5 and T/D=0.9, absence of lipids): sequestered by DNA; sequestration of tobramycin by DNA with cationic lipid ([2]; lipid concentration greater than or equal to that required for DNA charge neutralization): not sequestered

Question: Which “NaCl concentration up to which the F-actin-lysozyme close pack bundling peak increases” value [3] does the source give for “lysozyme: Hen Egg White Lysozyme (MW 14,300, Sigma Aldrich)” here?
Answer: ~150 mM

Question: What about the “salt concentration above which the lysozyme-actin bundling peak disappears” value ([3]; NaCl) of the same compound?
Answer: above 200 mM
